According to PubChem BioAssay AID248 (DTP/NCI, 2004):
“And” between values parts separate entries of the source, which are not always exact repeats. Equal entries are not always repeated. Inconclusive results and toxic doses are left out. Rule as the data show it: active = T/C of 150% or more; inactive = T/C below 125%. Square brackets hold non-standard residues; d marks the D form. Peptide text beside a SMILES is read from it. * marks the point of attachment. ξ: configuration not given here. Tos = Cc1ccc(S(=O)(=O)*)cc1; ξS = NC(CO)C(=O)O

Test system: L1210 leukemia ip in BDF1 mice, survival T/C
Test: NCI In Vivo Anticancer Drug Screen. Data for tumor model L1210 Leukemia (intraperitoneal) in B6D2F1 (BDF1) mice
Details: higher = longer survival
Outline: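 Tumor cells were implanted, animals were treated, and survival was followed. The result divides the treated measurement by the vehicle-control measurement.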

[1] = endpoint: mean survival time, dose: 100.0 mg/kg/injection, schedule: Q01DX001 (ip), vehicle: saline
[2] = endpoint: mean survival time, dose: 200.0 mg/kg/injection, schedule: Q01DX001 (ip), vehicle: saline
[3] = endpoint: mean survival time, dose: 400.0 mg/kg/injection, schedule: Q01DX001 (ip), vehicle: saline
[4] = endpoint: mean survival time, dose: 100.0 mg/kg/injection, schedule: Q01DX009 (ip), vehicle: Klucel (hydroxypropylcellulose) (HPC)
[5] = endpoint: mean survival time, dose: 100.0 mg/kg/injection, schedule: Q04DX003 (ip), vehicle: Klucel (hydroxypropylcellulose) (HPC)
[6] = endpoint: mean survival time, dose: 200.0 mg/kg/injection, schedule: Q01DX009 (ip), vehicle: Klucel (hydroxypropylcellulose) (HPC)
[7] = endpoint: mean survival time, dose: 200.0 mg/kg/injection, schedule: Q04DX003 (ip), vehicle: Klucel (hydroxypropylcellulose) (HPC)
[8] = endpoint: mean survival time, dose: 400.0 mg/kg/injection, schedule: Q04DX003 (ip), vehicle: Klucel (hydroxypropylcellulose) (HPC)
[9] = endpoint: mean survival time, dose: 100.0 mg/kg/injection, schedule: Q01DX001 (ip), vehicle: carboxymethylcellulose (CMC)
[10] = endpoint: mean survival time, dose: 200.0 mg/kg/injection, schedule: Q01DX001 (ip), vehicle: carboxymethylcellulose (CMC)
[11] = endpoint: mean survival time, dose: 100.0 mg/kg/injection, schedule: Q04DX002 (ip), vehicle: saline with Tween-80
[12] = endpoint: mean survival time, dose: 200.0 mg/kg/injection, schedule: Q04DX002 (ip), vehicle: saline with Tween-80
[13] = endpoint: mean survival time, dose: 400.0 mg/kg/injection, schedule: Q04DX002 (ip), vehicle: saline with Tween-80
[14] = endpoint: mean survival time, dose: 400.0 mg/kg/injection, schedule: Q01DX001 (ip), vehicle: carboxymethylcellulose (CMC)

Measured: T/C

Cc1ccc(S(=O)(=O)NC(CO)C(=O)NCC(=O)O)cc1 (stereo not drawn) (Tos-[ξS]-Gly-OH)
inactive: endpoint: mean survival time, dose: 100.0 mg/kg/injection, schedule: Q01DX009 (ip), vehicle: saline 103 % of control | endpoint: mean survival time, dose: 200.0 mg/kg/injection, schedule: Q01DX009 (ip), vehicle: saline 97 % of control | endpoint: mean survival time, dose: 400.0 mg/kg/injection, schedule: Q01DX009 (ip), vehicle: saline 91 % of control

CN1CCC(c2ccccc2)c2ccccc21 (stereo not drawn)
inactive: endpoint: mean survival time, dose: 100.0 mg/kg/injection, schedule: Q04DX003 (ip), vehicle: other 95 % of control | endpoint: mean survival time, dose: 200.0 mg/kg/injection, schedule: Q04DX003 (ip), vehicle: other 120 % of control | endpoint: mean survival time, dose: 400.0 mg/kg/injection, schedule: Q04DX003 (ip), vehicle: other 98 % of control

CCCCN(CCCC)CC(O)c1cc(Cl)cc2cccnc12 (stereo not drawn)
inactive: endpoint: mean survival time, dose: 12.5 mg/kg/injection, schedule: Q01DX009 (ip), vehicle: Klucel (hydroxypropylcellulose) (HPC) 106 % of control | endpoint: mean survival time, dose: 25.0 mg/kg/injection, schedule: Q01DX009 (ip), vehicle: Klucel (hydroxypropylcellulose) (HPC) 98 % of control | endpoint: mean survival time, dose: 50.0 mg/kg/injection, schedule: Q01DX009 (ip), vehicle: Klucel (hydroxypropylcellulose) (HPC) 109 % of control

Clc1ccccc1C1Nc2ccccc2S1 (stereo not drawn)
inactive: [1] 109 % of control | [2] 104 % of control | [3] 99 % of control

CN/C([S-])=N/N=C/C(=N/N=C(\[S-])NC)c1ccccc1.[Zn+2]
inactive: endpoint: mean survival time, dose: 6.25 mg/kg/injection, schedule: Q04DX002 (ip), vehicle: Klucel (hydroxypropylcellulose) (HPC) 101 % of control | endpoint: mean survival time, dose: 12.5 mg/kg/injection, schedule: Q04DX002 (ip), vehicle: Klucel (hydroxypropylcellulose) (HPC) 97 % of control

CC(=O)NC(CS)C(=O)O (stereo not drawn)
inactive: [1] 96 % of control | [2] 95 % of control | [3] 98 % of control | endpoint: median survival time, dose: 250.0 mg/kg/injection, schedule: Q01DX001 (ip), vehicle: saline 100 % of control | endpoint: median survival time, dose: 500.0 mg/kg/injection, schedule: Q01DX001 (ip), vehicle: none 101 % of control | endpoint: median survival time, dose: 750.0 mg/kg/injection, schedule: Q01DX001 (ip), vehicle: none 99 % of control | endpoint: median survival time, dose: 750.0 mg/kg/injection, schedule: Q01DX001 (ip), vehicle: saline 100 % of control | endpoint: median survival time, dose: 1000.0 mg/kg/injection, schedule: Q01DX001 (ip), vehicle: none 97 % of control and 106 % of control | endpoint: median survival time, dose: 1000.0 mg/kg/injection, schedule: Q01DX009 (ip), vehicle: saline 93 % of control | endpoint: median survival time, dose: 1000.0 mg/kg/injection, schedule: Q01DX014 (ip), vehicle: saline 100 % of control and 102 % of control | endpoint: median survival time, dose: 1000.0 mg/kg/injection, schedule: Q07DX003 (ip), vehicle: saline 94 % of control | endpoint: median survival time, dose: 1500.0 mg/kg/injection, schedule: Q01DX001 (ip), vehicle: none 113 % of control | endpoint: median survival time, dose: 1500.0 mg/kg/injection, schedule: Q01DX009 (ip), vehicle: saline 96 % of control | endpoint: median survival time, dose: 1500.0 mg/kg/injection, schedule: Q01DX014 (ip), vehicle: saline 102 % of control and 105 % of control | endpoint: median survival time, dose: 1500.0 mg/kg/injection, schedule: Q07DX003 (ip), vehicle: saline 94 % of control | endpoint: median survival time, dose: 2000.0 mg/kg/injection, schedule: Q01DX001 (ip), vehicle: saline 100 % of control

S=P(NCc1cccc(CNP(=S)(N2CC2)N2CC2)c1)(N1CC1)N1CC1
inactive: endpoint: mean survival time, dose: 75.0 mg/kg/injection, schedule: Q01DX001 (ip), vehicle: carboxymethylcellulose (CMC) 98 % of control | endpoint: mean survival time, dose: 150.0 mg/kg/injection, schedule: Q01DX001 (ip), vehicle: carboxymethylcellulose (CMC) 98 % of control | endpoint: mean survival time, dose: 300.0 mg/kg/injection, schedule: Q01DX001 (ip), vehicle: carboxymethylcellulose (CMC) 93 % of control

COC(=O)C1C=CCC2C(=O)C=C(C)C(=O)C12C (stereo not drawn)
inactive: [4] 94 % of control | [5] 96 % of control | [6] 92 % of control | [7] 100 % of control | endpoint: mean survival time, dose: 400.0 mg/kg/injection, schedule: Q01DX009 (ip), vehicle: Klucel (hydroxypropylcellulose) (HPC) 97 % of control | [8] 96 % of control

CCOC(=O)c1cc(-c2ccccc2)c(-c2ccccc2)c(-c2ccccc2)c1-c1ccccc1
inactive: endpoint: mean survival time, dose: 50.0 mg/kg/injection, schedule: Q01DX001 (ip), vehicle: carboxymethylcellulose (CMC) 97 % of control | [9] 100 % of control | [10] 97 % of control

CC(=O)Oc1ccccc1C(C)=O
inactive: [4] 97 % of control | [5] 96 % of control | [6] 97 % of control | [7] 98 % of control | [8] 104 % of control

COc1cc(-c2nc(/C=C3\C(=O)C=Cc4ccccc43)c(O)o2)cc(OC)c1OC
inactive: [11] 93 % of control | [12] 86 % of control | [13] 93 % of control

C=C(C)COc1c(Cl)cc(Cl)cc1C=Nc1ccccc1
inactive: endpoint: mean survival time, dose: 50.0 mg/kg/injection, schedule: Q01DX009 (ip), vehicle: saline with Tween-80 101 % of control | endpoint: mean survival time, dose: 100.0 mg/kg/injection, schedule: Q01DX001 (ip), vehicle: saline with Tween-80 94 % of control | endpoint: mean survival time, dose: 100.0 mg/kg/injection, schedule: Q01DX009 (ip), vehicle: saline with Tween-80 90 % of control | endpoint: mean survival time, dose: 200.0 mg/kg/injection, schedule: Q01DX001 (ip), vehicle: saline with Tween-80 89 % of control | endpoint: mean survival time, dose: 200.0 mg/kg/injection, schedule: Q01DX009 (ip), vehicle: saline with Tween-80 104 % of control

COc1cc(-c2cnc(N)nc2N)cc(OC)c1OC
inactive: endpoint: mean survival time, dose: 100.0 mg/kg/injection, schedule: Q04DX003 (ip), vehicle: saline with Tween-80 97 % of control | endpoint: mean survival time, dose: 200.0 mg/kg/injection, schedule: Q04DX003 (ip), vehicle: saline with Tween-80 103 % of control | endpoint: mean survival time, dose: 400.0 mg/kg/injection, schedule: Q04DX003 (ip), vehicle: saline with Tween-80 95 % of control

CN(C)C(=S)Sc1nc2ccccc2s1
inactive: [5] 101 % of control | [7] 104 % of control | [8] 101 % of control

CN(C)P(=O)(c1ccccc1)c1ccccc1
inactive: [11] 112 % of control | [12] 102 % of control | [13] 94 % of control

O=[N+]([O-])c1ccc(N/N=C/C#Cc2ccccc2)c([N+](=O)[O-])c1
inactive: endpoint: mean survival time, dose: 50.0 mg/kg/injection, schedule: Q04DX002 (ip), vehicle: saline with Tween-80 88 % of control

Nc1ncnc(N)c1NC(=O)COc1ccc([N+](=O)[O-])cc1
inactive: endpoint: mean survival time, dose: 100.0 mg/kg/injection, schedule: Q01DX001 (ip), vehicle: Klucel (hydroxypropylcellulose) (HPC) 102 % of control | endpoint: mean survival time, dose: 200.0 mg/kg/injection, schedule: Q01DX001 (ip), vehicle: Klucel (hydroxypropylcellulose) (HPC) 94 % of control | endpoint: mean survival time, dose: 400.0 mg/kg/injection, schedule: Q01DX001 (ip), vehicle: Klucel (hydroxypropylcellulose) (HPC) 100 % of control

CCC1(CC)C(=O)NC(=O)N(C)C1=O
inactive: endpoint: mean survival time, dose: 100.0 mg/kg/injection, schedule: Q04DX002 (ip), vehicle: Klucel (hydroxypropylcellulose) (HPC) 112 % of control | endpoint: mean survival time, dose: 200.0 mg/kg/injection, schedule: Q04DX002 (ip), vehicle: Klucel (hydroxypropylcellulose) (HPC) 88 % of control

COc1cc2c(cc1OC)[C@@H]1Cc3ccc(OC)c(OC)c3CN1CC2
inactive: [9] 102 % of control | [10] 110 % of control | [14] 94 % of control

CC(=O)NC(C(C)=O)C(C)=O.CC(=O)NC(C(C)=O)C(C)=O.[Cu]
inactive: endpoint: mean survival time, dose: 12.0 mg/kg/injection, schedule: Q01DX001 (ip), vehicle: saline 90 % of control | endpoint: mean survival time, dose: 25.0 mg/kg/injection, schedule: Q01DX001 (ip), vehicle: saline 88 % of control

O=c1nc(NO)ccn1C1CCCO1 (stereo not drawn)
inactive: [9] 96 % of control | [10] 100 % of control | [14] 96 % of control
